Where a name gives a salt, the structure may show the parent alone. Read-outs that look alike come from different tables or passages of the source.
Assays:
[1] = Long-term stability of sulfate salt, HPLC content; type: physicochemical
Procedure: In order to compare the long-term stabilities of (6R)-5,10-CH2-THF hemisulfate salt to the long-term stabilities of (6R)-5,10-CH2-THF sulfate salt prepared according to EP 0 537 492 B1, stability data for (6R)-5,10-CH2-THF sulfate salt has been generated at various temperatures and humidities. (a) Stability of (6R)-5,10-CH2-THF Sulfate (6R)-5,10-CH2-THF sulfate salt was prepared according to literature procedures (EP 0 537 492 B1) and stored for 15 months at −20° C. Subsequently, samples of the product were stored at 5° C. resp. at 25° C. and 60% relative humidity resp. at 40° C. and 75% relative humidity. The content of (6R)-5,10-CH2-THF sulfate salt remaining in the sample was measured by HPLC at periodic intervals. The content of (6R)-5,10-CH2-THF sulfate was compared to the initial value at the time of preparation (% rel.).

[2] = Content of degradation product 10-formyltetrahydrofolic acid in sulfate salt, HPLC; type: physicochemical
Procedure: (b) Content of the degradation product 10-formyl-(6R)-tetrahydrofolic acid (6R)-5,10-CH2-THF sulfate salt was prepared according to literature procedures (EP 0 537 492 B1) and stored for 15 months at −20° C. Subsequently, samples of the product were stored at 5° C. resp. at 25° C. and 60% relative humidity resp. at 40° C. and 75% relative humidity. The content of 10-formyltetrahydrofolic acid, a major degradation product, was measured by HPLC at periodic intervals and disclosed as absolute values (% w/w).

[3] = Phase I/II study ISO-CC-002, pharmacokinetics/pharmacodynamics versus Levoleucovorin; type: in vivo; conditions: compared to Levoleucovorin, 32 colon cancer patients
Procedure: (b) In a single-blinded, randomized phase I/II study (ISO-CC-002) performed on 32 patients diagnosed with colon cancer the pharmacokinetic and pharmacodynamic properties of (6R)-5,10-CH2-THF hemisulfate compared to Levoleucovorin in tumor tissue, adjacent mucosa and blood plasma were investigated. The study was performed at the Sahlgrenska University Hospital in Goteborg, Sweden. […] The concentrations of methylenetetrahydrofolate and tetrahydrofolate in both tumor and adjacent mucosa were also much higher after administration of (6R)-5,10-CH2-THF hemisulfate than those obtained after administration of Levoleucovorin.

[4] = Crystal form stability by XRPD (85% ethanol; high temperature/low pressure); type: physicochemical
Procedure: (§1) (b) Stability in 85% Ethanol at Room Temperature (6R)-5,10-CH2-THF hemisulfate salt (3.01 g) was dispersed in 100 ml 85% EtOH at room temperature and stirred for 5 h, then filtered and dried at 30° C. and 8 mbar for 12 hours (over night). […] (c) Stability at High Temperature/Low Pressure (6R)-5,10-CH2-THF hemisulfate salt (2.17 g) was placed in a drying chamber at 65° C. and 8 mbar for 21 h. […] (d) Long-Term Stability of (6R)-5,10-CH2-THF Hemisulfate Salt and Pharmaceutical Composition Thereof In order to determine the long-term stabilities of (6R)-5,10-CH2-THF hemisulfate salt, the salts were stored in air at 25° C. and at 60% relative humidity. The content of (6R)-5,10-CH2-THF hemisulfate salt remaining was measured by HPLC at periodic intervals and is given by comparison with the initial value (% rel.).

[5] = Suspension equilibration stability; type: physicochemical
Text: (a) Suspension equilibration of (6R)-5,10-CH2-THF hemisulfate salt as starting material at temperatures other than room temperature in a variety of solvents and mixture are summarized in Table 10: […]

[6] = Long-term stability of hemisulfate salt, HPLC content; type: physicochemical; conditions: salt stored in air, 25° C./60% rh
Procedure: as §1

[7] = Comparative stability hemisulfate versus sulfate salt (Example 4-1); type: physicochemical
Procedure: Stability studies were performed as in the examples above. The conditions for the studies are provided with each data set provided. Some of the data in this example is from previous examples herein, but are reproduced here to provide some kind of a side-by-side nature of the presentation of the results.

[8] = Clinical safety; type: in vivo; conditions: patients, doses of up to 200 mg/m^2
[9] = physiological common salt solution, +25° C., cited from earlier work
[10] = after 15 months at −20° C., then 5° C., 0 months
[11] = after 15 months at −20° C., then 5° C., 6 months
[12] = after 15 months at −20° C., then 25° C./60% rh, 0 months
[13] = after 15 months at −20° C., then 25° C./60% rh, 6 months
[14] = after 15 months at −20° C., then 40° C./75% rh, 0 months
[15] = after 15 months at −20° C., then 40° C./75% rh, 6 months

SMILES: Nc1nc2c(c(=O)[nH]1)N1CN(c3ccc(C(=O)N[C@@H](CCC(=O)O)C(=O)O)cc3)C[C@H]1CN2 [(6R)-5,10-CH2-THF sulfate salt, 5,10-methylene-(6R)-tetrahydrofolic acid]
- (6R)-5,10-CH2—THF sulfate (% rel.) [1, 10]: 98.7 % rel.
- (6R)-5,10-CH2—THF sulfate (% rel.) [1, 11]: 97.3 % rel.
- (6R)-5,10-CH2—THF sulfate (% rel.) [1, 12]: 98.7 % rel.
- (6R)-5,10-CH2—THF sulfate (% rel.) [1, 13]: 95.5 % rel.
- (6R)-5,10-CH2—THF sulfate (% rel.) [1, 14]: 98.7 % rel.
- (6R)-5,10-CH2—THF sulfate (% rel.) [1, 15]: 95.0 % rel.
- (6R)-5,10-CH2—THF sulfate (% rel.) ([1]; −20° C., 0 months): 100.0 % rel.
- (6R)-5,10-CH2—THF sulfate (% rel.) ([1]; −20° C., 15 months): 98.7 % rel.
- 10-formyltetrahydrofolic acid (% w/w) [2, 10]: 1.37 % w/w
- 10-formyltetrahydrofolic acid (% w/w) [2, 11]: 1.47 % w/w
- 10-formyltetrahydrofolic acid (% w/w) [2, 12]: 1.37 % w/w
- 10-formyltetrahydrofolic acid (% w/w) [2, 13]: 1.89 % w/w
- 10-formyltetrahydrofolic acid (% w/w) [2, 14]: 1.37 % w/w
- 10-formyltetrahydrofolic acid (% w/w) [2, 15]: 2.36 % w/w
- 10-formyltetrahydrofolic acid (% w/w) ([2]; −20° C., 0 months): 0.53 % w/w
- 10-formyltetrahydrofolic acid (% w/w) ([2]; −20° C., 15 months): 1.37 % w/w

SMILES: Nc1nc2c(c(=O)[nH]1)N1CN(c3ccc(C(=O)N[C@@H](CCC(=O)O)C(=O)O)cc3)C[C@H]1CN2 [(6R)-5,10-CH2-THF hemisulfate salt, N-[4-[(6aR)-3-amino-1,2,5,6,6a,7-hexahydro-1-oxoimidazo[1,5-f]pteridin-8(9H)-yl]benzoyl]-L-glutamic acid]
- concentrations of methylenetetrahydrofolate and tetrahydrofolate in tumor and adjacent mucosa [3]: much higher
- exposure and peak plasma concentrations of methylenetetrahydrofolate [3]: substantially greater
- X-ray pattern of crystal form Type 1 (XRPD) ([4]; drying chamber 65° C. and 8 mbar for 21 h): remained unchanged
- X-ray pattern of crystal form Type 1 (XRPD) ([4]; stirred in 85% EtOH at room temperature for 5 h): remained unchanged
- Observation (suspension equilibration stability) ([5]; 2-PrOH with ~2 mM L-ascorbic acid, 40° C., 3 d): No change
- Observation (suspension equilibration stability) ([5]; AcOH saturated with L-ascorbic acid, 50° C., 1 d): No change
- Observation (suspension equilibration stability) ([5]; AcOH saturated with L-ascorbic acid, 50° C., 5 d): No change
- Observation (suspension equilibration stability) ([5]; H2O, 5° C., 6 d): No change
- Observation (suspension equilibration stability) ([5]; MeCN saturated with L-ascorbic acid, 50° C., 5 d): No change
- Observation (suspension equilibration stability) ([5]; MeOH/formic acid 1:1, 50° C., 2 h): No change
- Observation (suspension equilibration stability) ([5]; PEG4500/EtOH 1:9 saturated with L-ascorbic acid, 50° C., 7 d): No change
- Observation (suspension equilibration stability) ([5]; THF with ~2 mM L-ascorbic acid, 40° C., 3 d): No change
- Observation (suspension equilibration stability) ([5]; formic acid/THF 1:3, 10-20° C., 6 d): No change
- (6R)-5,10-CH2—THF hemisulfate (% rel) ([6]; 0 months): 100.0 % rel
- (6R)-5,10-CH2—THF hemisulfate (% rel) ([6]; 3 months, listed as (6R)-5,10-CH2—THF hemisulfate (batch 1)): 99.7 % rel
- (6R)-5,10-CH2—THF hemisulfate (% rel) ([6]; 3 months, listed as (6R)-5,10-CH2—THF hemisulfate (batch 2)): 99.9 % rel
- (6R)-5,10-CH2—THF hemisulfate (% rel) ([6]; 3 months, listed as (6R)-5,10-CH2—THF hemisulfate (batch 3)): 99.5 % rel
- (6R)-5,10-CH2—THF hemisulfate (% rel) ([6]; 6 months): 99.5 % rel
- (6R)-5,10-CH2—THF hemisulfate (% rel) ([6]; 6 months, listed as (6R)-5,10-CH2—THF hemisulfate (batch 2)): 99.9 % rel
- (6R)-5,10-CH2—THF hemisulfate (% rel) ([6]; 9 months, listed as (6R)-5,10-CH2—THF hemisulfate (batch 1)): 99.6 % rel
- (6R)-5,10-CH2—THF hemisulfate (% rel) ([6]; 9 months, listed as (6R)-5,10-CH2—THF hemisulfate (batch 2)): 100.0 % rel
- (6R)-5,10-CH2—THF hemisulfate (% rel) ([6]; 9 months, listed as (6R)-5,10-CH2—THF hemisulfate (batch 3)): 99.4 % rel
- (6R)-5,10-CH2—THF hemisulfate (% rel) ([6]; 12 months, listed as (6R)-5,10-CH2—THF hemisulfate (batch 1)): 99.2 % rel
- (6R)-5,10-CH2—THF hemisulfate (% rel) ([6]; 12 months, listed as (6R)-5,10-CH2—THF hemisulfate (batch 2)): 99.7 % rel
- (6R)-5,10-CH2—THF hemisulfate (% rel) ([6]; 12 months, listed as (6R)-5,10-CH2—THF hemisulfate (batch 3)): 99.1 % rel
- (6R)-5,10-CH2—THF hemisulfate (% rel) ([6]; 18 months, listed as (6R)-5,10-CH2—THF hemisulfate (batch 1)): 99.2 % rel
- (6R)-5,10-CH2—THF hemisulfate (% rel) ([6]; 18 months, listed as (6R)-5,10-CH2—THF hemisulfate (batch 2)): 99.4 % rel
- (6R)-5,10-CH2—THF hemisulfate (% rel) ([6]; 18 months, listed as (6R)-5,10-CH2—THF hemisulfate (batch 3)): 99.0 % rel
- (6R)-5,10-CH2—THF hemisulfate (% rel) ([6]; 24 months, listed as (6R)-5,10-CH2—THF hemisulfate (batch 1)): 99.4 % rel
- (6R)-5,10-CH2—THF hemisulfate (% rel) ([6]; 24 months, listed as (6R)-5,10-CH2—THF hemisulfate (batch 2)): 99.4 % rel
- (6R)-5,10-CH2—THF hemisulfate (% rel) ([6]; 24 months, listed as (6R)-5,10-CH2—THF hemisulfate (batch 3)): 99.0 % rel
- (6R)-5,10-CH2—THF hemisulfate (% rel) ([6]; 36 months, listed as (6R)-5,10-CH2—THF hemisulfate (batch 1)): 98.5 % rel
- (6R)-5,10-CH2—THF hemisulfate (% rel) ([6]; 36 months, listed as (6R)-5,10-CH2—THF hemisulfate (batch 2)): 99.0 % rel
- stability compared with the sulfate salt ([7]; 3 batches, various temperatures): remarkably more stable
- stability at elevated temperature ([7]; +40° C. and relative humidity of 75%): excellent stability
- safety [8]: safe

SMILES: Nc1nc2c(c(=O)[nH]1)N1CN(c3ccc(C(=O)N[C@@H](CCC(=O)O)C(=O)O)cc3)C[C@H]1CN2 (mixture of isomers) [5,10-methylene-(6R,S)-tetrahydrofolic acid]
- % relative stability ([9]; with the exclusion of air, 0 hours): 100.0%
- % relative stability ([9]; with the exclusion of air, 4.0 hours): 58.0%
- % relative stability ([9]; with the exclusion of air, 24.0 hours): 38.0%
- % relative stability ([9]; with the exclusion of air, 26.0 hours): 18.0%
- % relative stability ([9]; with the exclusion of air, 48.0 hours): 8.0%
- % relative stability ([9]; without the exclusion of air, 0 hours): 100.0%
- % relative stability ([9]; without the exclusion of air, 4.0 hours): 84%
- % relative stability ([9]; without the exclusion of air, 24.0 hours): 12.0%
- % relative stability ([9]; without the exclusion of air, 26.0 hours): 8.0%
- % relative stability ([9]; without the exclusion of air, 48.0 hours): 6.0%
